We go through nine compounds from PubChem BioAssay AID1259407 (Chemical Carcinogenesis Research Information System (CCRIS), 2018).

The data set has as its system CCRIS mutagenicity, Ames/micronucleus/aberration tests. The experiment in a line: CCRIS mutagenicity studies. Conditions: Test System: AMES SALMONELLA TYPHIMURIUM
Setting [1] is: Strain/Indicator: TA98, Metabolic Activation: NONE, Method: PREINCUBATION
[2] abbreviates: Strain/Indicator: TA100, Metabolic Activation: NONE, Method: PREINCUBATION
Setting [3] is: Strain/Indicator: TA1535, Metabolic Activation: NONE, Method: PREINCUBATION
Setting [4] is: Strain/Indicator: TA100, Metabolic Activation: RAT, LIVER, S-9, AROCLOR 1254, Method: PREINCUBATION
[5] abbreviates: Strain/Indicator: TA1537, Metabolic Activation: NONE, Method: PREINCUBATION
Where [6] appears, read: Strain/Indicator: TA1538, Metabolic Activation: NONE, Method: PREINCUBATION
[7] abbreviates: Strain/Indicator: TA98, Metabolic Activation: NONE, Method: STANDARD PLATE.
Setting [8] is: Strain/Indicator: TA98, Metabolic Activation: RAT, LIVER, S-9, AROCLOR 1254, Method: STANDARD PLATE.
The mark [9] stands for this setting: Strain/Indicator: TA100, Metabolic Activation: NONE, Method: STANDARD PLATE.
The mark [10] stands for this setting: Strain/Indicator: TA100, Metabolic Activation: RAT, LIVER, S-9, AROCLOR 1254, Method: STANDARD PLATE.

Molecules are shown by their SMILES. The source made the active and inactive calls. How the calls were made is not given here.

For `CCC1NC(=O)c2cc(S(N)(=O)=O)c(Cl)cc2N1` (stereo not given), the mutagenic call was “inactive; negative” (Strain/Indicator: TA97, Metabolic Activation: HAMSTER, LIVER, S-9, AROCLOR 1254 (10%), Method: PREINCUBATION); “inactive; negative” (Strain/Indicator: TA97, Metabolic Activation: HAMSTER, LIVER, S-9, AROCLOR 1254 (30%), Method: PREINCUBATION); “inactive; negative” (Strain/Indicator: TA97, Metabolic Activation: NONE, Method: PREINCUBATION); “inactive; negative” (Strain/Indicator: TA97, Metabolic Activation: RAT, LIVER, S-9, AROCLOR 1254 (10%), Method: PREINCUBATION); “inactive; negative” (Strain/Indicator: TA97, Metabolic Activation: RAT, LIVER, S-9, AROCLOR 1254 (30%), Method: PREINCUBATION); “inactive; negative” (Strain/Indicator: TA98, Metabolic Activation: HAMSTER, LIVER, S-9, AROCLOR 1254 (10 OR 30%), Method: PREINCUBATION). Moreover, the mutagenic call was “inactive; negative” under setting [1]; “inactive; negative” (Strain/Indicator: TA98, Metabolic Activation: RAT, LIVER, S-9, AROCLOR 1254 (10 OR 30%), Method: PREINCUBATION); “inactive; negative” (Strain/Indicator: TA100, Metabolic Activation: HAMSTER, LIVER, S-9, AROCLOR 1254 (5 OR 10%), Method: PREINCUBATION); “inactive; negative” (Strain/Indicator: TA100, Metabolic Activation: HAMSTER, LIVER, S-9, AROCLOR 1254 (30%), Method: PREINCUBATION); “inactive; negative” under setting [2]; “inactive; negative” (Strain/Indicator: TA100, Metabolic Activation: RAT, LIVER, S-9, AROCLOR 1254 (5 OR 10%), Method: PREINCUBATION). Also, the mutagenic call (Strain/Indicator: TA100, Metabolic Activation: RAT, LIVER, S-9, AROCLOR 1254 (30%), Method: PREINCUBATION) is “inactive; negative”; the mutagenic call (Strain/Indicator: TA1535, Metabolic Activation: HAMSTER, LIVER, S-9, AROCLOR 1254 (10 OR 30%), Method: PREINCUBATION) was “inactive; negative”; the mutagenic call under setting [3] is “inactive; negative”; the mutagenic call (Strain/Indicator: TA1535, Metabolic Activation: RAT, LIVER, S-9, AROCLOR 1254 (10 OR 30%), Method: PREINCUBATION) is “inactive; negative”.

Regarding `Oc1cc(O)c2cc(O)c(-c3cc(O)c(O)c(O)c3)[o+]c2c1`, the mutagenic call runs as follows: under setting [1], “inactive; negative”; (Strain/Indicator: TA98, Metabolic Activation: RAT, LIVER, S-9, AROCLOR 1254, Method: PREINCUBATION) “inactive; negative”; under setting [2], “inactive; negative”; under setting [4], “inactive; negative”; under setting [3], “inactive; negative”; (Strain/Indicator: TA1535, Metabolic Activation: RAT, LIVER, S-9, AROCLOR 1254, Method: PREINCUBATION) “inactive; negative”. In addition, the mutagenic call by setting is: under setting [5], “inactive; negative”; (Strain/Indicator: TA1537, Metabolic Activation: RAT, LIVER, S-9, AROCLOR 1254, Method: PREINCUBATION) “inactive; negative”; under setting [6], “inactive; negative”; (Strain/Indicator: TA1538, Metabolic Activation: RAT, LIVER, S-9, AROCLOR 1254, Method: PREINCUBATION) “inactive; negative”.

Take `N#CCCl`: the mutagenic call is “inactive; negative” under setting [7]; “inactive; negative” under setting [8]; “inactive; negative” (Strain/Indicator: TA100, Metabolic Activation: NONE, Method: FLUCTUATION TEST); “inactive; negative” under setting [9]; “active; positive” (Strain/Indicator: TA100, Metabolic Activation: RAT, LIVER, S-9, AROCLOR 1254, Method: FLUCTUATION TEST); “inactive; negative” under setting [10]. Besides, the mutagenic call by setting is: (Strain/Indicator: TA1535, Metabolic Activation: NONE, Method: STANDARD PLATE) “inactive; negative”; (Strain/Indicator: TA1535, Metabolic Activation: RAT, LIVER, S-9, AROCLOR 1254, Method: STANDARD PLATE) “inactive; negative”.

As to `C=C(Br)CBr`, the mutagenic call (Strain/Indicator: TA100, Metabolic Activation: RAT, LIVER, MICROSOMES, PHENOBARBITAL, NADPH COFACTORS, Method: STANDARD PLATE) is “active; positive” and the mutagenic call (Strain/Indicator: TA100, Metabolic Activation: RAT, LIVER, MICROSOMES, PHENOBARBITAL, Method: STANDARD PLATE) is “active; positive”.

Regarding `O=C(O)/C=C/c1cccc([N+](=O)[O-])c1`, the mutagenic call was “inactive; negative” under setting [1]; “inactive; negative” under setting [7]; “inactive; negative” under setting [8]; “active; positive” under setting [2]; “active; positive” under setting [9]; “active; positive” under setting [4]. Further, the mutagenic call by setting is: under setting [10], “inactive; negative”; under setting [3], “active; positive”; under setting [5], “inactive; negative”; under setting [6], “inactive; negative”.

In the case of `Cc1ccc(NCCCl)cc1`, the mutagenic call by setting is: under setting [7], “active; positive”; under setting [9], “active; positive”; (Strain/Indicator: TA1977, Metabolic Activation: NONE, Method: STANDARD PLATE) “active; positive”; (Strain/Indicator: TA1978, Metabolic Activation: NONE, Method: STANDARD PLATE) “inactive; negative”.

`COC(=O)c1cc2c([nH]c3ccccc32)c(-c2ccc3c(n2)C(=O)C=CC3=O)n1`: the mutagenic call by setting is: under setting [9], “active; positive”; (Strain/Indicator: TA100, Metabolic Activation: RAT, LIVER, S-9, PCB, Method: STANDARD PLATE) “active; positive”.

`CCN[C@@H](C)C[C@H](C)NCC.[Cl-].[Cl-].[Pt+2]`: the mutagenic call is “active; positive” (Strain/Indicator: TA97A, Metabolic Activation: NONE, Method: STANDARD PLATE) and “active; positive” under setting [9].

Turning to `C1=Cc2c(ccc3ccc4ccccc4c23)C1`, the mutagenic call under setting [10] is “active; positive”.
